# Columns and labels:
# [1] = Evaluation of sensitivity (colour development with glucose, GDH-FAD, m-PMS, nickel; gradient versus WST-4)
# Description: Separately, 100 μL of RO water was added to 7 mg of a glucose dehydrogenase that uses flavin adenine dinucleotide (FAD) as a coenzyme (GDH-FAD) (manufactured by TOYOBO CO., LTD., product No.: GLD-351), the enzyme was dissolved, and thus a GDH solution was produced. Furthermore, 200 μL of RO water was added to 3.5 mg of 1-methoxy-5-methylphenazium methyl sulfate (m-PMS) (manufactured by DOJINDO LABORATORIES), and the compound was dissolved therein. Thus, an s-PMS solution was produced. 1 mL of RO water was added to 129 mg of nickel chloride to dissolve the salt, and thus a nickel solution was produced.
# 40 μL of the reaction solution was added to 10 μL each of an aqueous glucose solution at a concentration of 125 mg/dL, an aqueous glucose solution at a concentration of 250 mg/dL, and an aqueous glucose solution at a concentration of 1,000 mg/dL, and the mixtures were allowed to develop color. The spectra were measured with a spectrophotometer (measurement cell length: 50 μm) (n=1). […] Thus, the gradient (gradientsample) was determined.
# 40 μL of the control reaction solution was added to 10 μL each of an aqueous glucose solution at a concentration of 125 mg/dL, an aqueous glucose solution at a concentration of 250 mg/dL, and an aqueous glucose solution at a concentration of 1,000 mg/dL, and the mixtures were allowed to develop color. The spectra were measured with a spectrophotometer (measurement cell length: 50 μm) (n=1). For each of the spectra, the absorbance at 650 nm, which is the measurement wavelength (λmax) of WST-4, was measured, and the glucose concentration in the colored solution and the absorbance were plotted on the horizontal axis and the vertical axis, respectively. Thus, the gradient (gradientWST-4) was determined.
# FIG. 2 is a graph showing the relationship between the glucose concentration and the absorbance of produced formazan in relation to the tetrazolium compound 1 and WST-4. […] Meanwhile, the gradient serves as an index for the color development intensity of each compound. Therefore, when the value obtained by dividing the gradientsample by the gradientWST-4 (gradientsample/gradientWST-4) is greater than one-fold, it is implied that the intensity of color development on the longer wavelength side is higher compared to WST-4, which is a well-known indicator reagent.
# [2] = Evaluation of water-solubility (visual check for precipitate); assay type: physicochemical; details: RO water / 0.5 M MOPS solution (1:1), aqueous buffer, thermodynamic from solid; RO water and 0.5 M MOPS pH 7.2; 200, 100, 20 mM; stirred 5 minutes
# Description: After the mixture was stirred for 5 minutes, a precipitate was checked by visual inspection. […] After the mixture was stirred for 5 minutes, a precipitate was checked by visual inspection. […] After the mixture was stirred for 5 minutes, a precipitate was checked by visual inspection.
compound,measurement,setting,value
COc1ccc2nc(-n3nc(-c4ccc(S(=O)(=O)O)cc4S(=O)(=O)[O-])n[n+]3-c3ccc(OC)c(S(=O)(=O)O)c3)sc2c1 [Example 1],ratio gradientsample/gradientWST-4,[1]; FIG. 2,about 2.4
same,gradient (absorbance versus glucose concentration),"[1]; FIG. 2, compound 1 at its λmax with nickel, WST-4 at 650 nm without nickel",0.0063
same,"Sensitivity, comparison with Comparative Example 5 (rating)","[1]; gradientsample/gradientWST-4, absorbance at λmax versus glucose concentration, cell length 50 μm",⊙ (gradientsample/gradientWST-4) was 2 or greater)
same,solubility at 5 min,[2],> 200 mM

# Source: patent publication US11739083B2, “Disposable sensor chip with reagent including 2-substituted benzothiazolyl-3-substituted phenyl-5-substituted sulfonated phenyl-2H-tetrazolium salt” (TERUMO KABUSHIKI KAISHA, priority 2016, dated 2023)
